According to patent publication US12686877B2, “Method for producing olivetolic acid in an amoebozoa host species” (LEIBNIZ-INSTITUT FÜR NATURSTOFF-FORSCHUNG UND …, priority 2020, dated 2026):

System: D. discoideum pChR2 strain
Assay: Growth and metabolic activity monitoring (respiration activity, oxygen transfer rate)
Type: cell-based, Dictyostelium discoideum
Conditions: pChR2 strain supplemented with 1 mM hexanoic acid
Method: Growth and metabolic activity monitoring. For determining the respiration activity, the D. discoideum pChR2, pChR5 and pChR7 strains were grown at an initial density of 1×10^6 cells/mL of HL5 medium supplemented with 1% [w/v] glucose and 20 μg/mL G418 in the presence or absence of 20 μg/mL doxycycline and 1 mM hexanoic acid as indicated. The respiration activity was measured by using the Kuhner TOM (transfer-rate online measurement) system equipped with oxygen partial pressure sensors and infrared sensors to calculate the oxygen transfer rate (OTR) and the carbon dioxide transfer rate (CTR). The cultures were grown in 250 mL TOM flasks for 144 h at 140 rpm and 22° C. without interruption to allow a constant OTR assessment. A filling volume of 52 mL was calculated in order to allow a maximum OTR of 8.5 mmol/L/h43, similar to culture conditions of previous experiments using 25 mL per 100 mL Erlenmeyer shake flasks.

## CCCCCC(=O)O [hexanoic acid]
  effect on growth: initial growth inhibitory effect
  effect on maximum OTR: did not change the maximum OTR
77 h without supplementation
  time at which the oxygen transfer rate (OTR) peaked: 92 h
